The source of these data is ChEMBL document CHEMBL1133555 (J Med Chem, 2000).

Each structure is given as a SMILES string.

Test [1] deals with Norepinephrine transporter (Rattus norvegicus, UniProt Q9WTR4). The experiment in a line: Binding affinity for norepinephrine transporter (NET) labeled with [3H]nisoxetine.
Test [2] has as its target Sodium-dependent serotonin transporter (Rattus norvegicus, UniProt P31652). The experiment in a line: Binding affinity for serotonin transporter labeled with [125 I]RTI-55.
Test [3] has as its target Sodium-dependent dopamine transporter (Rattus norvegicus, UniProt P23977). The experiment in a line: Binding affinity for dopamine transporter (DAT) labeled with [125 I]RTI-55.

Chain of Sodium-dependent dopamine transporter (P23977 whole entry): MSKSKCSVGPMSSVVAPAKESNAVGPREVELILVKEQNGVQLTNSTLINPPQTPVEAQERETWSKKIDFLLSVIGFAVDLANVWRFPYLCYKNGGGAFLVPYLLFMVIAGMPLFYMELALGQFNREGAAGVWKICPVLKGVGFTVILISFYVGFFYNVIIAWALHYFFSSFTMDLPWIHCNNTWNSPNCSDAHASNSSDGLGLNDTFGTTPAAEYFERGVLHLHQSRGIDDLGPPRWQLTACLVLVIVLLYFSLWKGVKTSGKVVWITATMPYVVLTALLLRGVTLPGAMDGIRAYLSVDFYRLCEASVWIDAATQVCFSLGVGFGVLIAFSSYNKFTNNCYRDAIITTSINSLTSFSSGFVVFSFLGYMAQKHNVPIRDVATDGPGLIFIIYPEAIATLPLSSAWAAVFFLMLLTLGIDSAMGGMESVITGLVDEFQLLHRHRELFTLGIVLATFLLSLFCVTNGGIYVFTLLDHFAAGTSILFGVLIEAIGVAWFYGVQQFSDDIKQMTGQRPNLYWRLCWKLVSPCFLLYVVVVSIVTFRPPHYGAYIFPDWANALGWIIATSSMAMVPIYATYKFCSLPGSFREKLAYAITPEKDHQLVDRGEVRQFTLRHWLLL
Chain of Sodium-dependent serotonin transporter (P31652 whole entry): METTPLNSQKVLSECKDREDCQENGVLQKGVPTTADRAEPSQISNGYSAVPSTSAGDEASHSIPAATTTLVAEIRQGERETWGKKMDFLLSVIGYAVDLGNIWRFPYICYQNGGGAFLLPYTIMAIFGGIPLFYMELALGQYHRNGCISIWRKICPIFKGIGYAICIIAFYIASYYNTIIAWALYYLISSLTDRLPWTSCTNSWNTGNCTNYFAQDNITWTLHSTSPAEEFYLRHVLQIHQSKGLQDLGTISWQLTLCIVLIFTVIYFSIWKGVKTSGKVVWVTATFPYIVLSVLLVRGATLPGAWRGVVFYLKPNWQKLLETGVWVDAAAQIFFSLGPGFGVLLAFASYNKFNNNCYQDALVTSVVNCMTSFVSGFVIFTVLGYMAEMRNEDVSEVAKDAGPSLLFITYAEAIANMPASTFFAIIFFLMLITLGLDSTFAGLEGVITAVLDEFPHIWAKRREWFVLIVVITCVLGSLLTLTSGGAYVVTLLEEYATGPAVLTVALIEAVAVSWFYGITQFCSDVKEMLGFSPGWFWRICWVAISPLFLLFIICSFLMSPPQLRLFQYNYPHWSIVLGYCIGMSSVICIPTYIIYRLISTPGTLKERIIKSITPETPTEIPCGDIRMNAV
Chain of Norepinephrine transporter (Q9WTR4 whole entry): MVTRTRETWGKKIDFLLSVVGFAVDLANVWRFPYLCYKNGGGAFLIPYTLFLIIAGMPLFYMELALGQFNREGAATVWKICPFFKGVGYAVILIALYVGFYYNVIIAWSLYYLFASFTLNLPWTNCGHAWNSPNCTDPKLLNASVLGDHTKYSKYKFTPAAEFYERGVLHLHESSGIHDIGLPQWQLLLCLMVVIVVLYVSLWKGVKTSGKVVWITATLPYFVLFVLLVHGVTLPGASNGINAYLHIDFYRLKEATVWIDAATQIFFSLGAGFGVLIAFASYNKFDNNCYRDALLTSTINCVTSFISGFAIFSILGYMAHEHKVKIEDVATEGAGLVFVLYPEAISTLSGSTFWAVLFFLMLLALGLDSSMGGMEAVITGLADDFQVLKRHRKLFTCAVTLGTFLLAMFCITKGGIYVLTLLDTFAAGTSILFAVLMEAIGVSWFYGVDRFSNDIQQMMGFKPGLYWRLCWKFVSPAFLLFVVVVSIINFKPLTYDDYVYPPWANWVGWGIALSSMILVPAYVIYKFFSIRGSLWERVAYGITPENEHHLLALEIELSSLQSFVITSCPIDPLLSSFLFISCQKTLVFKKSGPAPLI

As usually defined, the Ki is a dissociation constant, usually derived from enzyme kinetics or from competition with a known ligand. Low values mean tighter binding, high ones weaker binding. With `CN[C@@H]1CC(c2ccc(Cl)c(Cl)c2)c2cccc(OC)c21` (stereo partly specified), the inhibition constant Ki in test [1] turned out to be 93 nM; in test [2] it was 108 nM; in test [3] it was 32 nM.

For `CN[C@@H]1CC(c2ccc(Cl)c(Cl)c2)c2cc(OC)c(OC)cc21` (stereo partly specified), the Ki in test [1] was determined as 102 nM; in test [2] it was 61 nM; in test [3] it was 3.6 nM.

As for `CN[C@@H]1CC(c2ccc(Cl)c(Cl)c2)c2c(OC)cccc21` (stereo partly specified), the Ki in test [1] came out at 27 nM; in test [2], 63 nM; in test [3], 1.7 nM.

`CN[C@@H]1CC(c2ccc(Cl)c(Cl)c2)c2cc(OC)ccc21` (stereo partly specified): the inhibition constant Ki in test [1] is 76.5 nM; in test [2], 6.5 nM; in test [3], 9.4 nM.

As to `CN[C@@H]1CC(c2ccc(Cl)c(Cl)c2)c2ccc(OC)cc21` (stereo partly specified), the Ki worked out at 15 nM in test [1], 1.1 nM in test [2] and 11.6 nM in test [3].

`CN[C@@H]1CC(c2ccc(Cl)c(Cl)c2OC)c2ccc(OC)cc21` (stereo partly specified): the Ki in test [1] was determined as 122 nM; in test [2] it was 5.6 nM; in test [3], 788 nM.

For the compound `CN[C@H]1c2cc(OC)ccc2C(c2ccc(Cl)c(Cl)c2)[C@@H]1O` (stereo partly specified), the results for the Ki in test [1], in test [2] and in test [3] were 1690 nM, 8.1 nM and 1130 nM, respectively.
